The results in this text go back to patent publication US7030125B2, “Isothiazole and isoxazole compounds as transforming growth factor (TGF) inhibitors” (Pfizer, Inc., priority 2002, dated 2006).

This assay has as its target T1, ALK-5 (TβRI) (Homo sapiens, UniProt P36897).
T1 construct: using either the kinase domain of ALK5 with Smad3 as substrate; GST
T1 sequence (P36897 205-495 limits assumed): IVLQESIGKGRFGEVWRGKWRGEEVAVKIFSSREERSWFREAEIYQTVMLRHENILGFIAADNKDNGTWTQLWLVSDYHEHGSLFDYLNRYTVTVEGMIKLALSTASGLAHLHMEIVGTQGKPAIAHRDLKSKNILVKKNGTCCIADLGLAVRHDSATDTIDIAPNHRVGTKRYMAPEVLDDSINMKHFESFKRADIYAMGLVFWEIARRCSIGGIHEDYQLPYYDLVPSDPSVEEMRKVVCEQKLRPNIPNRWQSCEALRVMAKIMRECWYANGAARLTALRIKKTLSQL
The experiment in a line: ALK-5 (TβRI) Kinase Assay. Format: biochemical. As to conditions: GST-ALK5 with GST-Smad3 as substrate; read-out: TβRIIC50 value. The protocol: The kinase assays were performed with 65 nM GST-ALK5 and 84 nM GST-Smad3 in 50 mM HEPES, 5 mM MgCl2, 1 mM CaCl2, 1 mM dithiothreitol, and 3_M ATP. Reactions were incubated with 0.5_Ci of [33 P]_ATP for 3 h at 30° C. Phosphorylated protein was captured on P-81 paper (Whatman, Maidstone, England), washed with 0.5% phosphoric acid, and counted by liquid scintillation. Alternatively, Smad3 or Smad1 protein was also coated onto FlashPlate Sterile Basic Microplates (PerkinElmer Life Sciences, Boston, Mass.). Kinase assays were then performed in Flash-Plates with same assay conditions using either the kinase domain of ALK5 with Smad3 as substrate or the kinase domain of ALK6 (BMP receptor) with Smad1 as substrate. Plates were washed three times with phosphate buffer and counted by TopCount (Packard Bio-science, Meriden, Conn.). (Laping, N.J. et al. Molecular Pharmacology 62:58–64 (2002)).

Molecules are shown by their SMILES.

As to `COc1ccc2nccc(-c3conc3-c3cccc(C)n3)c2c1` [Example 5, 6-Methoxy-4-[3-(6-methyl-pyridin-2-yl)-isoxazol-4-yl]-quinoline], the IC50 was approximately 0.118 µM.
